In general, IC50 refers to the concentration needed to halve the response being measured.

The results in this text go back to patent US20260327214A1, “1,3,4-OXADIAZOLE DERIVATIVE COMPOUNDS AS HISTONE DEACETYLASE 6 INHIBITOR, AND USES THEREOF” (CHONG KUN DANG PHARMACEUTICAL CORP., priority 2022, published 2026).

One test concerns the target T1, human recombinant HDAC1 (Homo sapiens, UniProt Q13547).
T1 construct: purchased Enzo Life Science BML-SE456
In words: HDAC1 enzyme activity inhibition test (HDAC Fluorometric Drug Discovery Kit). The test is classed as biochemical. The note with it: 30° C., 60 minutes, 10 μM substrate. The method, boiled down: (§1)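 IC50 derived from fluorescence (Ex 360, Em 460) following 30 min development with Developer II. Each reaction held 0.3 μg human recombinant HDAC1 or HDAC6, 10 μM Fluor de Lys SIRT1 substrate and 5-fold serially diluted compound, incubated 60 min at 30 °C.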

The target of the next test is T2, human recombinant HDAC6 (Homo sapiens, UniProt Q9UBN7).
T2 construct: purchased Calbiochem 382180
T2 sequence (Q9UBN7 1-1215): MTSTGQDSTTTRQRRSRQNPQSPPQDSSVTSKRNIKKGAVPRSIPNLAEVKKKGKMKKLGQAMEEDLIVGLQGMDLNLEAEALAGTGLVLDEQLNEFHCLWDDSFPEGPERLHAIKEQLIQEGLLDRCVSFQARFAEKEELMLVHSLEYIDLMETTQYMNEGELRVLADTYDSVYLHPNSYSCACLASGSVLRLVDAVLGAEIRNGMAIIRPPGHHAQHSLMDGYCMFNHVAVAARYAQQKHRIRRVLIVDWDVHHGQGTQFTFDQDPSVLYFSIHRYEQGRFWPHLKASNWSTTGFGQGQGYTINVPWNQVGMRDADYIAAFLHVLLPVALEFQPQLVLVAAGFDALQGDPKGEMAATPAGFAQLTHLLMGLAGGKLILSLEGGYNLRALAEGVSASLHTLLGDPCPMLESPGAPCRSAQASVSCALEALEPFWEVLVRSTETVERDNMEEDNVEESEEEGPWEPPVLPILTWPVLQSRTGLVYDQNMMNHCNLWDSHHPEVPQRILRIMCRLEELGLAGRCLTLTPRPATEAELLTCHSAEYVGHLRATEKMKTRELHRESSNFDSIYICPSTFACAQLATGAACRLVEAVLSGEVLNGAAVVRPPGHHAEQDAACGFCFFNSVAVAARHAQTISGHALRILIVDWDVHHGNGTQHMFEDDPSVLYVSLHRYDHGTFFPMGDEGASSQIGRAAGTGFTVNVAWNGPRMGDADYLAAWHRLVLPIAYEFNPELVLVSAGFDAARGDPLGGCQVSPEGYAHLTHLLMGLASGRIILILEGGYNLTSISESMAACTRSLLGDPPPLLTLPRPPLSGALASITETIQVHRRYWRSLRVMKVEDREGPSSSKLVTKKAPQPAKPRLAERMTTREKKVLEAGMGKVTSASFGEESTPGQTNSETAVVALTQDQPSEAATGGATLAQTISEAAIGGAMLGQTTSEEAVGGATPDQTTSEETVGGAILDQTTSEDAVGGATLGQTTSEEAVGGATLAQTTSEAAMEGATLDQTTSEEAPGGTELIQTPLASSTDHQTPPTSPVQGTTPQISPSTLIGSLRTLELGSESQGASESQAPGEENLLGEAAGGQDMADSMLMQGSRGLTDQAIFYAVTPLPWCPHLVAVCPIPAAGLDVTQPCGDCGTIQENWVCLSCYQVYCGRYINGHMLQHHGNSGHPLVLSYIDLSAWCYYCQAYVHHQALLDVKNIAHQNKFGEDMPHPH
Kind of test: HDAC6 enzyme activity inhibition test (HDAC Fluorometric Drug Discovery Kit). The note with it: for HDAC6 selectivity (fold): HDAC6 over HDAC1; for IC50: human recombinant HDAC6, same protocol as HDAC1. In kind it is biochemical. An outline of the steps: as §1

T1 sequence (Q13547 whole entry): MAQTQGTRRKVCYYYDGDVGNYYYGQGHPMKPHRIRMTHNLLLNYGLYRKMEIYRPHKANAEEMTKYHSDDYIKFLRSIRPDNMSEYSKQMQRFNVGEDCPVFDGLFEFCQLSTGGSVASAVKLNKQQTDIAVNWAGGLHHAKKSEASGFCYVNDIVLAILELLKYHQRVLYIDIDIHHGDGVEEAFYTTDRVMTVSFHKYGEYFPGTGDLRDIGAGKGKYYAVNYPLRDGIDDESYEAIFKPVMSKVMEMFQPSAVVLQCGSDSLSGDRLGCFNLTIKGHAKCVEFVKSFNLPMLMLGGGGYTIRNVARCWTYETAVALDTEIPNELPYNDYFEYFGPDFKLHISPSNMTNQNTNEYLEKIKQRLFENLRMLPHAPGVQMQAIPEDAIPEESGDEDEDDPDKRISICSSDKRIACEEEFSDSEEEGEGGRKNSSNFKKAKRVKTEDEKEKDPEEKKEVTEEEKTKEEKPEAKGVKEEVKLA

`CCN(CC)Cc1ccc(-c2nn(Cc3ncc(-c4nnc(C(F)F)o4)cc3F)c(=S)o2)cc1` [Compound 109, 5-[4-(diethylaminomethyl)phenyl]-3-[[5-[5-(difluoromethyl)-1,3,4-oxadiazol-2-yl]-3-fluoro-2-pyridyl]methyl]-1,3,4-oxadiazol-2-thione]: on human recombinant HDAC1, the IC50 is above 50000 nM. In addition, on human recombinant HDAC6, the “HDAC6 selectivity (fold)” value was determined as 1020 fold and the IC50 came out at 49 nM.
In the same order, the values of `Fc1cc(-c2nnc(C(F)F)o2)cnc1Cn1nc(-c2ccc(CN3CC(F)C3)cc2)oc1=S` [Compound 110, 3-[[5-[5-(difluoromethyl)-1,3,4-oxadiazol-2-yl]-3-fluoro-2-pyridyl]methyl]-5-[4-[(3-fluoroazetidine-1-yl)methyl]phenyl]-1,3,4-oxadiazol-2-thione] are above 50000 nM, 919 fold and 54.4 nM.
For the compound `CC1CCN(Cc2ccc(-c3nn(Cc4ncc(-c5nnc(C(F)F)o5)cc4F)c(=S)o3)cc2)CC1` [Compound 111, 3-[[5-[5-(difluoromethyl)-1,3,4-oxadiazol-2-yl]-3-fluoro-2-pyridyl]methyl]-5-[4-[(4-methyl-1-piperidyl)methyl]phenyl]-1,3,4-oxadiazol-2-thione], on human recombinant HDAC1, the IC50 is above 50000 nM. Moreover, at human recombinant HDAC6, the “HDAC6 selectivity (fold)” value is reported as 549 fold and the IC50 is 91 nM.
Consider `Fc1cc(-c2nnc(C(F)F)o2)cnc1Cn1nc(-c2ccc(CN3CCCCC3)cc2)oc1=S` [Compound 112, 3-[[5-[5-(difluoromethyl)-1,3,4-oxadiazol-2-yl]-3-fluoro-2-pyridyl]methyl]-5-[4-(1-piperidylmethyl)phenyl]-1,3,4-oxadiazol-2-thione], for which the values for the IC50 at human recombinant HDAC1 and on human recombinant HDAC6 were above 50000 nM and 51 nM, respectively. Also, the “HDAC6 selectivity (fold)” value on human recombinant HDAC6 is reported as 980 fold.
As for `Fc1cc(-c2nnc(C(F)F)o2)cnc1Cn1nc(-c2ccc(CN3CC[C@@H](F)C3)cc2)oc1=S` [Compound 113, 3-[[5-[5-(difluoromethyl)-1,3,4-oxadiazol-2-yl]-3-fluoro-2-pyridyl]methyl]-5-[4-[[(3R)-3-fluoropyrrolidin-1-yl]methyl]phenyl]-1,3,4-oxadiazol-2-thione], the IC50 at human recombinant HDAC1 was above 50000 nM. Also, at human recombinant HDAC6, the “HDAC6 selectivity (fold)” value came to 778 fold and the IC50 turned out to be 64.3 nM.
In the same order, the values of `Fc1cc(-c2nnc(C(F)F)o2)cnc1Cn1nc(-c2ccc(CN3CC[C@H](F)C3)cc2)oc1=S` [Compound 114, 3-[[5-[5-(difluoromethyl)-1,3,4-oxadiazol-2-yl]-3-fluoro-2-pyridyl]methyl]-5-[4-[[(3S)-3-fluoropyrrolidin-1-yl]methyl]phenyl]-1,3,4-oxadiazol-2-thione] are above 50000 nM, 824 fold and 60.7 nM.
Consider `CN1CCC(c2cc(-c3nn(Cc4ccc(-c5nnc(C(F)F)o5)cn4)c(=S)o3)ccc2F)CC1` [Compound 115, 3-[[5-[5-(difluoromethyl)-1,3,4-oxadiazol-2-yl]-2-pyridyl]methyl]-5-[4-fluoro-3-(1-methyl-4-piperidyl)phenyl]-1,3,4-oxadiazol-2-thione], for which the IC50 at human recombinant HDAC1 was above 50000 nM. Also, on human recombinant HDAC6, the “HDAC6 selectivity (fold)” value is reported as 483 fold and the IC50 came to 104 nM.
In the same order, the values of `CC(C)N1CCC(c2cc(-c3nn(Cc4ccc(-c5nnc(C(F)F)o5)cn4)c(=S)o3)ccc2F)CC1` [Compound 116, 3-[[5-[5-(difluoromethyl)-1,3,4-oxadiazol-2-yl]-2-pyridyl]methyl]-5-[4-fluoro-3-(1-isopropyl-4-piperidyl)phenyl]-1,3,4-oxadiazol-2-thione] are above 50000 nM, 429 fold and 116 nM.
In the case of `CN(C)Cc1cccc(-c2nn(Cc3ncc(-c4nnc(C(F)F)o4)cc3F)c(=S)o2)c1` [Compound 117, 3-[[5-[5-(difluoromethyl)-1,3,4-oxadiazol-2-yl]-3-fluoro-2-pyridyl]methyl]-5-[3-[(dimethylamino)methyl]phenyl]-1,3,4-oxadiazol-2-thione], the IC50 on human recombinant HDAC1 is above 50000 nM. Also, on human recombinant HDAC6, the “HDAC6 selectivity (fold)” value came to 675 fold and the IC50 was 74.1 nM.
For `Fc1cc(-c2nnc(C(F)F)o2)cnc1Cn1nc(-c2cccc(CN3CCC3)c2)oc1=S` [Compound 118, 5-[3-(azetidine-1-ylmethyl)phenyl]-3-[[5-[5-(difluoromethyl)-1,3,4-oxadiazol-2-yl]-3-fluoro-2-pyridyl]methyl]-1,3,4-oxadiazol-2-thione], in that order: above 50000 nM, 742 fold and 67.4 nM.
For the compound `Fc1cc(-c2nnc(C(F)F)o2)cnc1Cn1nc(-c2cccc(CN3CCCCC3)c2)oc1=S` [Compound 119, 3-[[5-[5-(difluoromethyl)-1,3,4-oxadiazol-2-yl]-3-fluoro-2-pyridyl]methyl]-5-[3-(1-piperidylmethyl)phenyl]-1,3,4-oxadiazol-2-thione], the values for the IC50 at human recombinant HDAC1 and at human recombinant HDAC6 were above 50000 nM and 84.8 nM, respectively. On human recombinant HDAC6, the “HDAC6 selectivity (fold)” value amounted to 590 fold.
Take `CCN(CC)Cc1cccc(-c2nn(Cc3ncc(-c4nnc(C(F)F)o4)cc3F)c(=S)o2)c1` [Compound 120, 5-[3-(diethylaminomethyl)phenyl]-3-[[5-[5-(difluoromethyl)-1,3,4-oxadiazol-2-yl]-3-fluoro-2-pyridyl]methyl]-1,3,4-oxadiazol-2-thione]: the IC50 was above 50000 nM at human recombinant HDAC1 and 79.5 nM at human recombinant HDAC6. Besides, the “HDAC6 selectivity (fold)” value on human recombinant HDAC6 was determined as 630 fold.
Take `CN(C)Cc1ccc(-c2nn(Cc3ccc(-c4nnc(C(F)F)o4)cn3)c(=S)o2)s1` [Compound 121, 3-[[5-[5-(difluoromethyl)-1,3,4-oxadiazol-2-yl]-2-pyridyl]methyl]-5-[5-[(dimethylamino)methyl]-2-thienyl]-1,3,4-oxadiazol-2-thione]: the IC50 at human recombinant HDAC1 was above 50000 nM. At human recombinant HDAC6, the “HDAC6 selectivity (fold)” value is reported as 639 fold and the IC50 worked out at 78.2 nM.
In the same order, the values of `CCN(CC)Cc1ccc(-c2nn(Cc3ccc(-c4nnc(C(F)F)o4)cn3)c(=S)o2)s1` [Compound 122, 5-[5-(diethylaminomethyl)-2-thienyl]-3-[[5-[5-(difluoromethyl)-1,3,4-oxadiazol-2-yl]-2-pyridyl]methyl]-1,3,4-oxadiazol-2-thione] are above 50000 nM, 453 fold and 110 nM.
`FC(F)c1nnc(-c2ccc(Cn3nc(-c4ccc(CN5CCC5)s4)oc3=S)nc2)o1` [Compound 123, 5-[5-(azetidine-1-ylmethyl)-2-thienyl]-3-[[5-[5-(difluoromethyl)-1,3,4-oxadiazol-2-yl]-2-pyridyl]methyl]-1,3,4-oxadiazol-2-thione]: on human recombinant HDAC1, the IC50 is above 50000 nM. Moreover, on human recombinant HDAC6, the “HDAC6 selectivity (fold)” value was found to be 1109 fold and the IC50 was 45.1 nM.
In the same order, the values of `FC(F)c1nnc(-c2ccc(Cn3nc(-c4ccc(CN5CC[C@@H](F)C5)s4)oc3=S)nc2)o1` [Compound 124, 3-[[5-[5-(difluoromethyl)-1,3,4-oxadiazol-2-yl]-2-pyridyl]methyl]-5-[5-[[(3R)-3-fluoropyrrolidin-1-yl]methyl]-2-thienyl]-1,3,4-oxadiazol-2-thione] are above 50000 nM, 491 fold and 102 nM.
In the same order, the values of `FC(F)c1nnc(-c2ccc(Cn3nc(-c4ccc(CN5CC[C@H](F)C5)s4)oc3=S)nc2)o1` [Compound 125, 3-[[5-[5-(difluoromethyl)-1,3,4-oxadiazol-2-yl]-2-pyridyl]methyl]-5-[5-[[(3S)-3-fluoropyrrolidin-1-yl]methyl]-2-thienyl]-1,3,4-oxadiazol-2-thione] are above 50000 nM, 563 fold and 88.8 nM.
